Patent publication US20070270350A1, “Methods and Compositions for the Prevention and Treatment of Inflammatory Diseases or Conditions” (MUSC FOUNDATION FOR RESEARCH DEVELOPMENT, priority 2003, published 2007)

How the values were obtained:
NF-κβ = experiment: Nuclear translocation of NF-κβ in anti-CD3/CD28 stimulated naïve T cells; type: cell-based, mouse; settings: lovastatin 2 h pretreatment, dose-dependent (5-50 μM); anti-CD3 and CD28 4 h
KA-treated rats = experiment: KA-induced seizure model (epilepsy model), rat hippocampus; type: in vivo; settings: statin 10 mg/kg orally, 3 days after KA
Method: FIG. 45. Experimental design for the use of statins as a therapeutic for kinic acid induced seizures (epilepsy model).
FIG. 46. […] The rats were orally pre-treated (7 days before) with atorvastatin (LP; 10 mg/kg) prior to KA (10 mg/kg, i.p.). At 3 days after KA injection, neuronal cell death in hippocampus was examined using cresyl violet stain.
FIG. 47. […] The rats were orally pre-treated (7 days before) with atorvastatin (LP; 10 mg/kg) prior to KA (10 mg/kg, i.p.). At 3 days after KA injection, infiltration of macrophages in the CA1 and CA3 regions of the hippocampus was examined using immunofluorescent labeling against for ED-1, as a marker of monocytes.
The rats were orally pre-treated (7 days before) with atorvastatin (LP; 10 mg/kg) prior to KA (10 mg/kg, i.p.). At 3 days after KA injection, neuronal cell death in the CA1 (A) and CA3 (B) regions of the hippocampus was examined using TUNNEL assay.
FIG. 49. […] The rats were orally pre-treated (7 days before) with lovastatin (Lov; 10 mg/kg) prior to KA (10 mg/kg, i.p.). At 3 days after KA injection, neuronal cell death in hippocampus was examined using cresyl violet stain.
(§1) FIG. 50A-C. […] The rats were orally pre-treated (7 days before) with atorvastatin (LP; 10 mg/kg) prior to KA (10 mg/kg, i.p.). At 3 days after KA injection, the expression of inflammatory genes (TNF-α, IL-1β, and iNOS) in hippocampus using real time PCR. The expression of each gene was normalized with GAPDH expression.
as §1, with “51A-C.” for “50A-C.”, “lovastatin (Lov;” for “atorvastatin (LP;”
Seizure index: stage 1, facial clonus; stage 2, nodding; stage 3, forelimb clonus; stage 4, forelimb clonus with rearing; stage 5, rearing, jumping, and falling. The rats were orally pre-treated (7 days before) with lovastatin or atorvastatin (Lov or LP; 10 mg/kg) prior to KA (10 mg/kg, i.p.).

Macrophages = settings: 10 μM lovastatin or 5 mM NaPA 8 h, LPS 1.0 μg/ml, 24 h
T cells = experiment: Cytokine production by PLP139-151-primed DLN cells and naïve T cells; type: cell-based, mouse; settings: lovastatin 10 and 20 μM, p<0.0001
Method: (A), (C), (E), (G), and (I) DNL cells were isolated on day 10 from PLP139-151 immunized SJL/J mice and cultured in vitro at 5×10^6 cells/ml in the presence of PLP139-151 (5 μg/ml) and lovastatin (10 and 20 μM). (B) (D), (F), (H), and (J) Naïve T cells (98% purified) isolated from lymph nodes were cultured in anti-CD3 and anti-CD28-precoated plates at 1×10^6 cells/ml with lovastatin (10 and 20 μM). The supernatants were collected at 48 h (for IFN-γ and TNF-α) and 120 h (for IL-4, IL-5, and IL-10) for cytokine measurements. […] The values are the means of triplicate determinations at each point, and the error bars represent +/−SD.

Microglia = settings: 10 μM lovastatin or 5 mM NaPA 8 h, LPS 1.0 μg/ml, 24 h
Rat Primary Astrrocytes = settings: LPS 1.0 μg/ml, 24 h
EAE in SJL/J mice = experiment: Active and passive EAE in SJL/J mice treated with lovastatin; type: in vivo, mouse; settings: i.p. t or 5 mg/kg lovastatin every day, days 0-60 or started on day 10, p<0.001
[1] = 48 h, PLP-primed and naïve T cells

## CC[C@H](C)C(=O)O[C@H]1C[C@@H](C)C=C2C=C[C@H](C)[C@H](CC[C@@H]3C[C@@H](O)CC(=O)O3)[C@H]21 [Lovastatin, lovastatin]
NF-κβ
  nuclear translocation of NF-κβ: inhibits
KA-treated rats; 7 days before KA 10 mg/kg i.p.
  KA-induced neuronal cell death in hippocampus (cresyl violet stain): inhibited
KA-treated rats; 7 days before KA
  expression of inflammatory genes (TNF-α, IL-1β, and iNOS) induced by KA in hippocampus (real time PCR): inhibited
Macrophages; LPS only 18.6 +/− 2.3
  TNF-α: 1.2 +/− 0.1 ng/24 h/mg protein
Macrophages; LPS only 34.6 +/− 4.5
  Il-1β: 2.3 +/− 0.3 ng/24 h/mg protein
Macrophages; LPS only 118.5 +/− 12.5
  NO: 7.2 +/− 0.9 n mol/24 h/mg protein
Macrophages; LPS only 350.0 +/− 27.6
  IL-6: 8.3 +/− 0.6 ng/24 h/mg protein
T cells; [1]
  IFN-γ in supernatants: significantly reduced
  TNF-α in supernatants: significantly reduced
T cells; 120 h
  IL-4 in supernatants: significantly increased
  IL-5 in supernatants: significantly increased
  IL-10 in supernatants: significantly increased
Microglia; LPS only 14.5 +/− 2.1
  TNF-α: 0.9 +/− 0.1 ng/24 h/mg protein
Microglia; LPS only 28.2 +/− 3.4
  Il-1β: 2.1 +/− 0.3 ng/24 h/mg protein
Microglia; LPS only 81.2 +/− 6.9
  NO: 5.9 +/− 0.4 n mol/24 h/mg protein
Microglia; LPS only 295.6 +/− 33.5
  IL-6: 7.8 +/− 1.1 ng/24 h/mg protein
Rat Primary Astrrocytes; 10 μM lovastatin or 5 mM NaPA 8 h, LPS only 5.3 +/− 0.8
  TNF-α: 0.3 +/− 0.05 ng/24 h/mg protein
Rat Primary Astrrocytes; 10 μM lovastatin or 5 mM NaPA 8 h, LPS only 10.4 +/− 1.5
  Il-1β: 0.8 +/− 0.1 ng/24 h/mg protein
Rat Primary Astrrocytes; 10 μM lovastatin or 5 mM NaPA 8 h, LPS only 136.5 +/− 16.8
  IL-6: 0.8 +/− 0.1 ng/24 h/mg protein
Rat Primary Astrrocytes; 10 μM lovastatin or 5 mM NaPA 8 h serum free, LPS only 25.3 +/− 3.2
  NO: 5.2 +/− 0.4 n mol/24 h/mg protein
EAE in SJL/J mice
  severity of EAE disease (mean clinical scores): significantly less
